Starred links: 1 amine or outer side, 2 acyl side, 3 side chain; linkers in the order of their positions; H or OH if unused. Positions of bridges follow the written chain, without caps; N, C: chain ends. Non-standard residues stand in square brackets, D forms with d. Residues, ends and D or L forms follow the SMILES beside them. ξ: configuration not given here. *: point of attachment. pTerphenylCO(4''-OnC5H11) = CCCCCOc1ccc(-c2ccc(-c3ccc(C(=O)*)cc3)cc2)cc1; Orn(4R-OH,5R-OH) = O=C([C@H](C[C@@H](O)[C@@H](O)N[*:3])N[*:1])[*:2]; hTyr(3S-OH,4S-OH) = N[C@H](C(=O)O)[C@H](O)[C@@H](O)c1ccc(O)cc1; Pro(3S-OH,4S-Me) = C[C@H]1CN[C@H](C(=O)O)[C@H]1O; ξPro(4R-OH) = O=C(O)C1C[C@@H](O)CN1
Tested on: Rat Primary Kidney Glomerular Endothelial cells
Experiment: Oxygen and glucose deprivation followed by replenishment, cell survival (calcein AM), rat glomerular endothelial cells;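 for Survival rate (%): 100% is hypoxia control with glucose and 0% is untreated OGD control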
Assay type: cell-based
Method: Anidulafungin and micafungin were tested on Human Renal Glomerular Endothelial Cells (HRGEC, Innoprot P10665), on Human Renal Proximal Tubular Epithelial Cells (HRPTEpiC, Innoprot P10662), on Human Astrocytes (HA, caltag SC-1800), on Human Cardiac Microvascular Endothelial Cells (HCMEC, Caltag SC-6000), on Human Hepatic Sinusoidal Endothelial Cells (HHSEC, Caltag SC-5000), on Rat Primary Kidney Glomerular Endothelial cells (Cellbiologics, RN-6014G) and on Bovine Brain Microvascular Endothelial Cells (BBMEC, Caltag SC-B100).
In a first phase, these isolated, purified and cryopreserved cells are thawed and multiplied according to the supplier's recommendations in T75 or T175 flasks pre-coated with 2 μg of fibronectin/[…] (CORNING) for HRGEC, HCMEC, HHSEC and BBMEC, or 2 μg poly-L-lysin/cm^2 (Caltag SC-0403) for HRPTEpiC and HA, or 15 mL/flask 175 cm^2 gelatin-based solution (Cellbiologics) in the presence of endothelial cell supplemented growth medium ECM (P60104, INNOPROT, Caltag, SC-1001) for HRGEC, HCMEC, HHSEC, RPKGEC or BBMEC, or astrocyte cell supplemented growth medium AM (Caltag SC-1801) for HA or epithelial cell supplemented growth medium EpiCM (P60106, INNOPROT) for HRPTEpiC, at 37° C. under 5% CO2 and saturated humidity until their confluency. They are then harvested by trypsinization according to the method described by the supplier for exactly 5 minutes and then reseeded in new flasks a maximum of three times.
To carry out the oxygen and glucose deprivation test followed by their replenishment, the cells will be seeded in 96-well black plates with transparent flat bottom (GREINER). Once a sufficient number of cells has been obtained to allow seeding of 2000 to 15000 cells per well of 96-well plates depending on the cell type, the cells are seeded in these 96-well plates previously coated with an extracellular matrix as listed above for the flasks. The cells are cultured for 5 to 8 days according to the cell type, in the presence of the same growth medium as in the flask as described above except for HRGEC and HRPTEpiC for which DMEM (DUTSCHER) with 1 g/L of supplemented glucose is used, at 37° C. under 5% CO2 and saturated humidity to obtain confluency.
On the first day of oxygen and glucose deprivation, (5th, 6th, 7th or 8th day of culture), the culture conditions are drastically changed. The medium of all plates is removed and replaced by DMEM (DUTSCHER) medium without glucose and supplemented only with 1% penicillin-streptomycin (DUTSCHER). Anidulafungin or micafungin dissolved in dimethyl sulfoxide (DMSO) is then added to each well at the desired concentration, resulting in a maximum of 1% DMSO, and the plates are placed under hypoxia at <1% 02 and 5% CO2 at 37° C. for 24 hours of culture. Each compound was tested in a concentration range.
After 24 hours, the growth medium is changed and replaced by a richer medium, DMEM (DUTSCHER) at 1 g/L glucose and 2% FBS (INNOPROT) and 1% penicillin-streptomycin (DUTSCHER). These media will have been pre-equilibrated at 37° C. in advance. The cells are then returned to culture at 37° C. under 20% 02 and 5% CO2 for 22h.
After 22 hours of reoxygenation, the potential protective effect of anidulafungin or micafungin is measured by a cell viability test using calcein AM (CORNING), which is a dye substrate. The calcein AM can easily cross the cell membrane of the viable cells. The AM ester groups mask the part of the molecule that chelates calcium. Once inside the cells, the (non-fluorescent) calcein AM is hydrolyzed to (fluorescent) calcein by endogenous esterases. The resulting calcein molecule binds to calcium inside the cell and remains trapped inside the cell. These molecules emit strong green fluorescence when subjected to […] of a particular wavelength (495 nm). Since dead cells lack esterase activity, only living cells are labelled.
This cell viability test is performed in two steps. […]

[1] = [Anidulafungin] log μM 0.1760913
[2] = [Anidulafungin] log μM 0.4771213
[3] = [Anidulafungin] log μM 0.7781513
[4] = [Anidulafungin] log μM 0.845098
[5] = [Anidulafungin] log μM 0.9542425
[6] = [Anidulafungin] log μM −0.154902
[7] = [Anidulafungin] log μM −0.30103
[8] = [Anidulafungin] log μM −0.5228788

## CCCCCOc1ccc(-c2ccc(-c3ccc(C(=O)N[C@H]4C[C@@H](O)[C@@H](O)NC(=O)[C@@H]5[C@@H](O)[C@@H](C)CN5C(=O)[C@H]([C@@H](C)O)NC(=O)[C@H]([C@H](O)[C@@H](O)c5ccc(O)cc5)NC(=O)C5C[C@@H](O)CN5C(=O)[C@H]([C@@H](C)O)NC4=O)cc3)cc2)cc1 (stereo partly drawn) [Anidulafungin] ({pTerphenylCO(4''-OnC5H11)}-[Orn(4R-OH,5R-OH)]T[ξPro(4R-OH)][hTyr(3S-OH,4S-OH)]T[Pro(3S-OH,4S-Me)]; lactam 1-C)
[Anidulafungin] log μM 0
  Globalfluo assay 1: 2763556 arbitrary units
  Globalfluo assay 2: 3715544 arbitrary units
  Globalfluo assay 3: 3395182 arbitrary units
  Mean globalfluo: 3291427 arbitrary units
  Survival rate (%): −1%
[1]
  Globalfluo assay 1: 4125220 arbitrary units
  Globalfluo assay 2: 3558016 arbitrary units
  Globalfluo assay 3: 4929089 arbitrary units
  Mean globalfluo: 4204108 arbitrary units
  Survival rate (%): 3%
[Anidulafungin] log μM 0.30103
  Globalfluo assay 1: 6944934 arbitrary units
  Globalfluo assay 2: 4307906 arbitrary units
  Globalfluo assay 3: 5211398 arbitrary units
  Mean globalfluo: 5488079 arbitrary units
  Survival rate (%): 8%
[Anidulafungin] log μM 0.39794
  Globalfluo assay 1: 7911533 arbitrary units
  Globalfluo assay 2: 3661322 arbitrary units
  Globalfluo assay 3: 9914104 arbitrary units
  Mean globalfluo: 7162320 arbitrary units
  Survival rate (%): 15%
[2]
  Globalfluo assay 1: 5124858 arbitrary units
  Globalfluo assay 2: 4212586 arbitrary units
  Globalfluo assay 3: 3823154 arbitrary units
  Mean globalfluo: 4386866 arbitrary units
  Survival rate (%): 4%
[Anidulafungin] log μM 0.60206
  Globalfluo assay 1: 7387656 arbitrary units
  Globalfluo assay 2: 4239781 arbitrary units
  Globalfluo assay 3: 4439823 arbitrary units
  Mean globalfluo: 5355753 arbitrary units
  Survival rate (%): 7%
[Anidulafungin] log μM 0.69897
  Globalfluo assay 1: 10033620 arbitrary units
  Globalfluo assay 2: 4718363 arbitrary units
  Globalfluo assay 3: 7321110 arbitrary units
  Mean globalfluo: 7357698 arbitrary units
  Survival rate (%): 16%
[3]
  Globalfluo assay 1: 10219130 arbitrary units
  Globalfluo assay 2: 11308900 arbitrary units
  Globalfluo assay 3: 8342703 arbitrary units
  Mean globalfluo: 9956911 arbitrary units
  Survival rate (%): 26%
[4]
  Globalfluo assay 1: 10949560 arbitrary units
  Globalfluo assay 2: 9736722 arbitrary units
  Globalfluo assay 3: 8273113 arbitrary units
  Mean globalfluo: 9653132 arbitrary units
  Survival rate (%): 25%
[Anidulafungin] log μM 0.90309
  Globalfluo assay 1: 15350400 arbitrary units
  Globalfluo assay 2: 11785650 arbitrary units
  Globalfluo assay 3: 7401575 arbitrary units
  Mean globalfluo: 11512542 arbitrary units
  Survival rate (%): 32%
[5]
  Globalfluo assay 1: 9960942 arbitrary units
  Globalfluo assay 2: 10967130 arbitrary units
  Globalfluo assay 3: 15364830 arbitrary units
  Mean globalfluo: 12097634 arbitrary units
  Survival rate (%): 35%
[6]
  Globalfluo assay 1: 3628425 arbitrary units
  Globalfluo assay 2: 3463582 arbitrary units
  Globalfluo assay 3: 3208621 arbitrary units
  Mean globalfluo: 3433543 arbitrary units
  Survival rate (%): 0%
[7]
  Globalfluo assay 1: 2638281 arbitrary units
  Globalfluo assay 2: 3646882 arbitrary units
  Globalfluo assay 3: 3842217 arbitrary units
  Mean globalfluo: 3375793 arbitrary units
  Survival rate (%): −1%
[8]
  Globalfluo assay 1: 3892260 arbitrary units
  Globalfluo assay 2: 3780606 arbitrary units
  Globalfluo assay 3: 4016223 arbitrary units
  Mean globalfluo: 3896363 arbitrary units
  Survival rate (%): 2%
[Anidulafungin] log μM −1
  Globalfluo assay 1: 3282790 arbitrary units
  Globalfluo assay 2: 3299018 arbitrary units
  Globalfluo assay 3: 4299152 arbitrary units
  Mean globalfluo: 3626987 arbitrary units
  Survival rate (%): 0%
[Anidulafungin] log μM −2
  Globalfluo assay 1: 5018485 arbitrary units
  Globalfluo assay 2: 4417533 arbitrary units
  Globalfluo assay 3: 3450400 arbitrary units
  Mean globalfluo: 4295473 arbitrary units
  Survival rate (%): 3%
[Anidulafungin] log μM −3
  Globalfluo assay 1: 2824954 arbitrary units
  Globalfluo assay 2: 3274736 arbitrary units
  Globalfluo assay 3: 3773899 arbitrary units
  Mean globalfluo: 3291196 arbitrary units
  Survival rate (%): −1%
